# Test results: patent US8575376B2, “Steroide anionic compounds, method of their production, usage and pharmaceutical preparation involving them” (Ustav Organicke Chemie A Biochemie Akademie Ved Ceske …, priority 2009, dated 2013)
# Key:
# [1] = target: T1, recombinant NR1/NR2B receptors (Rattus norvegicus, UniProt P35439+Q00960); settings: 100 μM pregnanolone sulphate, recombinant NR1/NR2B receptors (Petrovic et al., 2005); listed as preganolone sulphate; cited from earlier work
# T1 construct: expressed in transfected cells; host or cells: HEK293 cells (ATCC CRL1573)
# [2] = test system: NMDA receptor on hippocampal neurons; settings: 100 μM pregnanolone sulphate, responses to 100 μM NMDA, hippocampal neurons (Petrovic et al., 2005); cited from earlier work
# [3] = target: T1, recombinant NR1/NR2B receptors; test: Patch-clamp, inhibition of glutamate responses of recombinant NMDA receptors in transfected HEK293 cells; type: cell-based; settings: for IC50: calculated from relative inhibition with Hill's coefficient 1.2; for Relative inhibition effect (%): responses to 1 mM glutamate, -60 mV, HEK293 NR1-1a/NR2B, steroid 50, 100 or 200 μM
# C6 glioma cell line = test: Growth of glioma cells in culture; type: cell-based; settings: 0.1 and 1 μg in 50 ml β-cyclodextrine solution, 3 div + 6 days
# Procedure: The effect of compound from the example 9 (the model molecule) on growth of glioma cells was studied on C6 glioma cell line (ATTC, Rockville). The model molecule was tested at doses of 0.1 and 1 μg dissolved in 50 ml of β-cyclodextrine solution. Parallel control groups were administered by cholesterol at doses of 0.1 and 1 μg dissolved in 50 ml of β-cyclodextrine solution. The last group included in the experiment was left intact without any application.
# The cells were cultivated in vitro for 3 days (div). Afterwards tested molecule was applied and the cell culture was studied for additional 6 days. Olympus microscope with phase contrast and 200× magnification was used for the cell monitoring.
# rats [4] = test: Active allothetic place avoidance (AAPA) task, compound applied alone; type: in vivo, rat
# Procedure: The effect of compound from Example 9 on cognitive behaviors and locomotion was assessed using active allothetic place avoidance (AAPA) task, which requires intact hippocampi and ability of animals to navigate in space using distinct reference frames (spatial navigation and “cognitive coordination”) (Wesierska et al., 2005) and it also allows measuring changes in the accompanying locomotor activity. AAPA task training involves animals trained to move over a slowly rotating uniform circular arena, on which a prohibited sector is defined, entering which is punished by a mild footshock. A shock sector and its position can be determined solely by its relationship to distal orienting cues in the room (Stuchlik et al., 2008).
# This task is highly dependent upon hippocampal formation, with unilateral reversible ablation of this structure with TTX leading to avoidance deficit (Cimadevilla et al., 2001). Animals solving this task should walk in a direction opposite to arena rotation; otherwise it would be repeatedly brought to a fixed sector by arena rotation. We conducted 4 acquisition session of AAPA task, during which the sector location was always reinforced and remained stable throughout the training. Each session lasted 20 min.
# Control animals obtained saline intraperitoneally (i.p.) whilst experimental groups received subcutaneous (s.c.) injections of the compound from Example 9 at doses 1 mg/kg and 10 mg/kg (dissolved in cyclodextrin). Solution of compound from Example 9 (1 mg/2 ml or 10 mg/2 ml in cyclodextrin) was applied s.c. at a volume 2 ml/kg of body weight (b.w.). Intraperitonal application of dizocilpine (a non-competitive NMDA receptor antagonist; showing significant neuroprotective activity but exerting cognition-disturbing and psychotomimetic effects) was used as a positive control. Dizocilpine was applied at doses 0.1 mg/kg, 0.2 mg/kg and 0.3 mg/kg. It is worth noting that dizocilpine (albeit its experimental neuroprotective activity) is often used to model schizophrenia-like behaviors in […] and it has been repeatedly shown to exert a dose-dependent learning deficit and hyperlocomotion.
# rats [5] = test: Open-field locomotion in MK-801 animal model of schizophrenia; type: in vivo, rat; settings: substance alone; Example 9 0.1 and 1 mg/kg, MK-801 0.1 mg/kg
# Procedure: The effect of the compound from example 9 in doses of 0.1 mg/kg and 1 mg/kg on locomotor activity in open field test was evaluated. Locomotor activity expressed as a total distance travelled during 30 min exploration of a box (68×68×30 cm) located in a sound proof room was measured using a video tracking system for automation of the behavioural experiments (Noldus, EthoVision, Version 2.1.).
# [6] = Example 9 1 and 10 mg/kg s.c., dizocilpine 0.1-0.3 mg/kg i.p.
# T1 sequence (Q00960 27-1482, other chains not shown): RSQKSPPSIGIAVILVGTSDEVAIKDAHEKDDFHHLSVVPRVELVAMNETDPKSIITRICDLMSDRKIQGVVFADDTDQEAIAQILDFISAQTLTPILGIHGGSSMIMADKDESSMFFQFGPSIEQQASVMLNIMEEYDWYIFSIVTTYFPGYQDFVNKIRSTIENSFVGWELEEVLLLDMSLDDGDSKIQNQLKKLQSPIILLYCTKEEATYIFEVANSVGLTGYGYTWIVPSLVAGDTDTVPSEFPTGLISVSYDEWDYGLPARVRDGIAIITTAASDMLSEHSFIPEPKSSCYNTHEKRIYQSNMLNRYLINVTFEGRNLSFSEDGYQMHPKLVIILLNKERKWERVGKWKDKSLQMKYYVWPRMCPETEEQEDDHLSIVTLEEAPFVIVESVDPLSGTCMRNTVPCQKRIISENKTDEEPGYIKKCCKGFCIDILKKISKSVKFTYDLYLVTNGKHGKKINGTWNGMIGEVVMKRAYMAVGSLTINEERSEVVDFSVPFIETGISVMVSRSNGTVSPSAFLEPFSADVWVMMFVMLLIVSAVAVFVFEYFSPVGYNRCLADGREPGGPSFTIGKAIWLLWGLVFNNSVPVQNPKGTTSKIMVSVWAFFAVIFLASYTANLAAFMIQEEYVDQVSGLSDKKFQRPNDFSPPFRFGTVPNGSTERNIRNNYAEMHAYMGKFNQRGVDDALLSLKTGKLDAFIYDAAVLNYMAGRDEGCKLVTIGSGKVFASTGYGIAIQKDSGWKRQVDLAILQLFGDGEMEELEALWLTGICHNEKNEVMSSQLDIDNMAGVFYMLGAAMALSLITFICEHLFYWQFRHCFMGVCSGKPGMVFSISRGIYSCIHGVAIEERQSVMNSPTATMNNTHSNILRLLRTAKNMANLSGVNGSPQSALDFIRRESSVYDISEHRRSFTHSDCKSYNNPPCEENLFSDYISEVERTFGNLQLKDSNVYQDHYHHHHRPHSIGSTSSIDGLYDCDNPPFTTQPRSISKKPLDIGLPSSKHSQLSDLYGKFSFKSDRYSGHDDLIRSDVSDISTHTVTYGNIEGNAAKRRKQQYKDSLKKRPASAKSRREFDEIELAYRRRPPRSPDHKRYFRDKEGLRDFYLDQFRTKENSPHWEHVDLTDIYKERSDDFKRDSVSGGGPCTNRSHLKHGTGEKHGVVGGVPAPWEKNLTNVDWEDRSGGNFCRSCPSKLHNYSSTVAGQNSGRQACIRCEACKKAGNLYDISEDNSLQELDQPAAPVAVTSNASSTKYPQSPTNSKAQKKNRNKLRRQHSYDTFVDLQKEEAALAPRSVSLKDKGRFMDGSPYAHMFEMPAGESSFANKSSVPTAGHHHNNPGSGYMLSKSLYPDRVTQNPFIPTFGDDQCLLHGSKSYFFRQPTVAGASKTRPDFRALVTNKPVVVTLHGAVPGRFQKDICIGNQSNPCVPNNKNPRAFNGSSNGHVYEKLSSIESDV
Molecule,IC50 [3] [µM],Relative inhibition effect (%) [3] [%],other results
20-oxo-5beta-pregnan-3alpha-yl sulfate [Pregnanolone sulphate],55,,mean inhibition effect [1]: 67.2±8.2%; mean inhibition effect [2]: 71.3±5.0%
"CC(=O)[C@H]1CC[C@H]2[C@@H]3CC[C@@H]4C[C@H](OC(=O)[C@@H](N)CC(=O)O)CC[C@]4(C)[C@H]3CC[C@]12C [Example 3, 20-Oxo-5β-pregnan-3α-yl L-aspartyl 1-ester]",51,83.6 ± 2.7,
"CC(=O)[C@H]1CC[C@H]2[C@@H]3CC[C@@H]4C[C@H](OC(=O)CCCCC(=O)O)CC[C@]4(C)[C@H]3CC[C@]12C [Example 13, 20-Oxo-5β-pregnan-3α-yl-adipyl 1-ester]",40,87.3 ± 8.9,
"CC(=O)[C@H]1CC[C@H]2[C@@H]3CC[C@@H]4C[C@H](OC(=O)CCCCCC(=O)O)CC[C@]4(C)[C@H]3CC[C@]12C [Example 14, 20-Oxo-5β-pregnan-3α-yl 6-carboxyhexanoate]",135,61.5 ± 10.6,
"CC(=O)[C@H]1CC[C@H]2[C@@H]3CC[C@@H]4C[C@H](OC(=O)CCCCCCC(=O)O)CC[C@]4(C)[C@H]3CC[C@]12C [Example 15, 20-Oxo-5β-pregnan-3α-yl 7-carboxyheptanoate]",175,54.0 ± 10.8,
"CC(=O)[C@H]1CC[C@H]2[C@@H]3CC[C@@H]4C[C@H](OC(=O)/C=C\C(=O)O)CC[C@]4(C)[C@H]3CC[C@]12C [Example 17, 20-Oxo-5β-pregnan-3α-yl (Z)-3-carboxyprop-2-enoate]",14,81.6 ± 2.7,
"CC(=O)[C@H]1CC[C@H]2[C@@H]3CC[C@@H]4C[C@H](OC(=O)C(C)CC(=O)O)CC[C@]4(C)[C@H]3CC[C@]12C (stereo partly drawn) [Example 19, 20-Oxo-5β-pregnan-3α-yl 3-carboxy-ξ-methyl-propanoate]",30,80.9 ± 3.6,
"COC(=O)CN[C@@H]1CC[C@@]2(C)[C@H](CC[C@@H]3[C@@H]2CC[C@]2(C)[C@@H](C(C)=O)CC[C@@H]32)C1.Cl [Example 26, N-(20-Oxo-5β-pregnan-3α-yl) glycine methylester hydrochloride]",250,43.4 ± 3.4,
"CC(C)CCC[C@@H](C)[C@H]1CC[C@H]2[C@@H]3CC=C4C[C@@H](O)CC[C@]4(C)[C@H]3CC[C@]12C [cholesterol, reference compound]",,,effect on growth of glioma cells (C6 glioma cell line): slightly apparent
C[C@]12N[C@H](Cc3ccccc31)c1ccccc12 [dizocilpine],,,"maximum time avoided in AAPA (rats [4]; [6]): significantly decreased rats' performance; number of entrances into shock sector in AAPA (rats [4]; [6]): dose-dependently disrupted this parameter; total distance traveled in AAPA (locomotor activity) (rats [4]; Example 9 1 and 10 mg/kg s.c., dizocilpine 0.1-0.3 mg/kg i.p., 20-min sessions): dose-dependently and consistently stimulated the locomotor activity; locomotor activity in AAPA (rats [4]; dizocilpine 0.1 mg/kg i.p.): hyperlocomotion was not observed; locomotor activity in AAPA (rats [4]; dizocilpine 0.2 mg/kg i.p.): marked locomotor hyperactivity; locomotor activity in AAPA (rats [4]; dizocilpine 0.3 mg/kg i.p.): even more dramatic hyperlocomotion; locomotion in open field (total distance, 30 min) (rats [5]): hyperlocomotion state induced by MK-801"
